From publication PMC8928484 (Journal of the American Chemical Society, 2022)
pIC50: −log10 of the molar value. Read-outs that look alike come from different tables or passages of the source.

How the values were obtained:
FEM1B [1] = target: T1, FEM1B (Mus musculus, UniProt Q9Z2G0); experiment: competitive fluorescence polarization with TAMRA-FNIP1 degron; type: binding
FEM1B [2] = target: T1, FEM1B; experiment: as above; type: binding; remark: listed apart in the source

T1 sequence (Q9Z2G0 whole entry): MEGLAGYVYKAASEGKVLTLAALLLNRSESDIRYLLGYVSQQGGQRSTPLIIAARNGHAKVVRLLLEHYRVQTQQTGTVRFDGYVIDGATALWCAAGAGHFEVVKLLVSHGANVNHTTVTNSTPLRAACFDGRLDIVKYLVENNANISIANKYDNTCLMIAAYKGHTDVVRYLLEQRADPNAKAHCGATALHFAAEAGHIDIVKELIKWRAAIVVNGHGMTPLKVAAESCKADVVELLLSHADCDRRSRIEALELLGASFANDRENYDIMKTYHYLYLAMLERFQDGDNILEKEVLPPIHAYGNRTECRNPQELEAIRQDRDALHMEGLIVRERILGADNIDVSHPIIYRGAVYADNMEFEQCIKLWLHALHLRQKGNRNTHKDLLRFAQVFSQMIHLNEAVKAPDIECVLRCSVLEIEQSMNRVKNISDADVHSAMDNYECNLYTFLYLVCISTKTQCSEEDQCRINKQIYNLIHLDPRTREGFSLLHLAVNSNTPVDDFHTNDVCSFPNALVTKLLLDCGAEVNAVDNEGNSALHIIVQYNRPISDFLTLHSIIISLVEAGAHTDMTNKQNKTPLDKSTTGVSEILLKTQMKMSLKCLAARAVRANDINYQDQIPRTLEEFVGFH

Row | pIC50 (FEM1B [1]) | pIC50 (FEM1B [2]) | Compound
1 | 6.17 | – | C#CCCCC(=O)N1CCOc2cc(N(CCC#N)C(=O)CCl)ccc21 [NJH-2-030]
2 | – | 5.82 | NJH-1-106
